Laboratory results published in paper PMC3523740 (Chemistry & biodiversity, 2012).
Where two headings read alike, the source gives them in different places.

How the values were obtained:
[1] = biological target: (M0)NP2; conditions: read-out: Kd^Hm (nM) at pH 5.5; cited from earlier work
[2] = biological target: NP2(D1A); conditions: read-out: Kd^Hm (nM) at pH 5.5; cited from earlier work
[3] = biological target: (M0)NP2; conditions: read-out: Kd^Hm (nM) at pH 7.5; cited from earlier work
[4] = biological target: NP2(D1A); conditions: read-out: Kd^Hm (nM) at pH 7.5; cited from earlier work
[5] = Nitric oxide dissociation constant of the Fe; type: binding; conditions: pH 5.0, 27 °C
[6] = Kinetics of nitric oxide release; type: binding
[7] = histamine, cited from earlier work
[8] = read-out: Kd^NO at pH 7.5, nitric oxide; cited from earlier work
[9] = Stopped-flow kinetics of histamine binding and release; conditions: pH 5.5, calculated from Kd = koff/kon

## (M0)NP2: Recombinant nitrophorin 2 expressed in E. coli retaining methionine-0 from the start codon (N-terminus MDC…)
[5]
  Kd^NO at pH 5.0: Too small to meas.
[6]; pH 5.0, 27 °C
  kon^NO at pH 5.0: Too large to meas.
[6]; pH 5.0, 27 °C, displacement by histamine, this work
  koff^NO at pH 5.0: 0.049 ± 0.002 ^TW s^−1
[6]; pH 7.5, 27 °C, displacement by histamine, this work
  koff^NO at pH 7.5: 0.161 ± 0.005 ^TW s^−1
[6]; pH 7.5, calculated from Kd = koff/kon
  kon^NO at pH 7.5: 32.3 ± 6.5 ^a μM^−1s^−1
[7]; pH 5.5
  koff^Hm at pH 5.5: 0.163 ± 0.011 ^b s^−1
[7]; pH 7.5
  koff^Hm at pH 7.5: 0.056 ± 0.003 ^b s^−1
  kon^Hm at pH 7.5: 4.5 ± 0.1 ^b μM^−1s^−1
[8]
  Kd: 5 ± 1 nM
[9]
  kon^Hm at pH 5.5: 0.7 ± 0.1 ^a μM^−1s^−1
